Experimental data: US20250319032A1, “PHARMACEUTICAL COMPOSITIONS OF RIBOCICLIB” (Novartis AG, priority 2024, published 2025)

Experiment: Nitrite content (ion chromatography; LC-FLD with DAN derivatisation; Griess test) in drug substance, intermediates, reagents, solvents, filters, excipients
Assay type: physicochemical
Parameters: Nitrite content T0 (enhanced method): unit: ppm
Settings: for Nitrite NAP method (ppm) / Nitrite NAT enhanced sample prep. (ppm): ribociclib succinate drug substance batches at release; for Nitrite content T0 (enhanced method): drug substance manufactured at Menges
From the text: The method of testing for the presence and/or total amount of nitrites that is used in the methods of the invention may be any method which allows for the detection and/or quantitation of nitrites in a composition. For example, the method may be the Griess test. The Griess test allows for the detection and analysis of nitrite by the formation of a red-pink colour upon treatment of a nitrite-containing sample with the Griess reagent. The Griess reagent consists of two components in an acidic solution: an aniline derivative and a coupling agent. The most common arrangements use sulfanilamide and N-(1-naphthyl)ethylenediamine. For example 0.2% N-(1-naphthyl)ethylenediamine dihydrochloride and 2% sulfanilamide in 5% phosphoric acid may be used as a Griess reagent. Other aniline derivatives that may be used in a Griess reagent include sulfanilic acid, nitroaniline, and p-aminoacetophenone.
The Griess test involves two subsequent reactions, as shown in the scheme below. When the aniline derivative (e.g., sulfanilamide) is added, the nitrite ion reacts with it in the Griess diazotization reaction to form a diazonium salt, which then reacts with N-(1-naphthyl)ethylenediamine in an azo-coupling reaction, forming a pink-red azo-dye. Using a spectrophotometer, the nitrite concentration can then be quantitatively detected.
Additionally purified water; e.g. Milli Q • 2.
• 10 mM KH2PO4 Weigh accurately about 1.361 g of KH2PO4 into a 1 L volumetric flask, dissolve it in approximately 950 mL of additionally purified water and adjust the pH to 8.0 (with 2.7 M NaOH). Make up to the mark with additionally purified water. • 0.62 M HCl Add a few millilitres (e.g. 20 mL) of additionally purified water to a 200 mL volumetric flask, add 10.280 mL of concentrated HCl, mix and make up to the mark with additionally purified water. • 2.7 M NaOH Weigh accurately about 1.092 g of NaOH pellets into a 10 mL volumetric flask and dissolve it in additionally purified water. Cool to room temperature and make up to the mark with the same solvent. • Reagent DAN Weigh accurately about 5 mg of 2,3-diaminophthalene into a 100 mL volumetric flask and dissolve it with the solvent (methanol/water 1:1 (v/v)). Dilute up to the mark and ensure visual full dissolution. Use an amberglass flask. • Mobile phase A Mix 950 mL of 10 mM KH2PO4 solution (pH=8) and add 50 mL methanol. • Mobile phase B Methanol. • Solvent Methanol/water 1:1 (v/v), e.g. mix 2000 mL of additionally purified water and 2000 mL methanol.
• Instrument: HPLC with FLR detector; e.g. Waters Arc or equivalent • Column: C18 50×4.6 mm, 2.5 μm, e.g. XBridge C18 2.5 μm, 4.650 mm or equivalent
• Notes It is recommended to wear additional protective equipment (face mask and gloves) during weighing. • It is recommended to wash the column with 50% methanol after the analysis (example of preparation: mix 500 mL methanol and 500 m1 of additionally purified water). • It is recommended to rinse the injector with solvent after each injection. • All glassware and tools should be rinsed with additionally purified water before use. It is not recommended to leave the solutions open for a longer time before measurement. • Blank solution 1 Transfer 1 mL of solvent into a HPLC vial and perform derivatization as described below. • Blank solution 2 Transfer 10 mL of solvent into a single use glass vial and mix it on a magnetic stirrer for 30 min. Transfer the solution into a 5 mL centrifuge tube and centrifuge for 10 min at 12000 rpm. […] Fill up to the mark with solvent and mix. • (Cnitrite≈0.0005 mg/mL) • Comparison solution Transfer 10 mL of nitrite stock solution into a 500 mL volumetric flask. • (2 parallels) Fill up to the mark with solvent and mix. • Transfer 1 mL solution into a HPLC vial and perform the derivatization as described below. • (Cnitrite≈100 ppb) • Sample solution Accurately weigh about 1000 mg of the sample into a glass vial for single use and add 10 mL of solvent.

SMILES | Nitrite NAP method (ppm) | Nitrite NAT enhanced sample prep. (ppm) | Nitrite NAT enhanced sample prep. (ppm) (manufacturer Raybow - DS04) | other results
CN(C)C(=O)c1cc2cnc(Nc3ccc(N4CCNCC4)cn3)nc2n1C1CCCC1.O=C(O)CCC(=O)O [Batch B711439] | 0.1 ppm | <0.1 ppm | – | –
CN(C)C(=O)c1cc2cnc(Nc3ccc(N4CCNCC4)cn3)nc2n1C1CCCC1.O=C(O)CCC(=O)O [Batch B696587] | 0.2 ppm | <0.1 ppm | – | Nitrite content T0 (enhanced method): <0.1
CN(C)C(=O)c1cc2cnc(Nc3ccc(N4CCNCC4)cn3)nc2n1C1CCCC1.O=C(O)CCC(=O)O [Batch B695105] | 0.3 ppm | 0.3 ppm | – | –
CN(C)C(=O)c1cc2cnc(Nc3ccc(N4CCNCC4)cn3)nc2n1C1CCCC1 [Batch B687416] | – | – | – | Nitrite [ppm] LOD (1 ppm) (ribociclib base (LEE011 B10), ion chromatography): <LOD
CN(C)C(=O)c1cc2cnc(Nc3ccc(N4CCNCC4)cn3)nc2n1C1CCCC1.O=C(O)CCC(=O)O [RIBOCICLIB SUCCINATE 833268A211] | – | – | <0.1 ppm | –
CN(C)C(=O)c1cc2cnc(Nc3ccc(N4CCNCC4)cn3)nc2n1C1CCCC1.O=C(O)CCC(=O)O [RIBOCICLIB SUCCINATE 834325A016] | – | – | – | Nitrite NAT enhanced sample prep. (ppm) (manufacturer Raybow - DS05): 0.1 ppm
CN(C)C(=O)c1cc2cnc(Nc3ccc(N4CCNCC4)cn3)nc2n1C1CCCC1.O=C(O)CCC(=O)O [DS (B699003AA)] | – | – | – | Nitrite content (component (DS or MgST) used in binary mixtures): DS 0.1 ppm
CN(C)C(=O)c1cc2cnc(Nc3ccc(N4CCNCC4)cn3)nc2n1C1CCCC1.O=C(O)CCC(=O)O [Batch B709051] | 0.2 ppm | <0.1 ppm | – | –
CN(C)C(=O)c1cc2cnc(Nc3ccc(N4CCNCC4)cn3)nc2n1C1CCCC1.O=C(O)CCC(=O)O [Batch B696590] | 0.3 ppm | 0.4 ppm | – | –
CN(C)C(=O)c1cc2cnc(Nc3ccc(N4CCNCC4)cn3)nc2n1C1CCCC1.O=C(O)CCC(=O)O [RIBOCICLIB SUCCINATE 833268R015] | – | – | <0.1 ppm | –
CN(C)C(=O)c1cc2cnc(Nc3ccc(N4CCNCC4)cn3)nc2n1C1CCCC1.O=C(O)CCC(=O)O [Batch B710669] | 0.1 ppm | <0.1 ppm | – | –
CN(C)C(=O)c1cc2cnc(Nc3ccc(N4CCNCC4)cn3)nc2n1C1CCCC1.O=C(O)CCC(=O)O [RIBOCICLIB SUCCINATE 833268A202] | – | – | 0.1 ppm | Nitrite NAT enhanced sample prep. (ppm) (manufacturer Raybow - DS05): 0.1 ppm
CN(C)C(=O)c1cc2cnc(Nc3ccc(N4CCNCC4)cn3)nc2n1C1CCCC1.O=C(O)CCC(=O)O [Batch B709939] | 0.2 ppm | <0.1 ppm | – | –
CN(C)C(=O)c1cc2cnc(Nc3ccc(N4CCNCC4)cn3)nc2n1C1CCCC1.O=C(O)CCC(=O)O [RIBOCICLIB SUCCINATE 834325A015] | – | – | – | Nitrite NAT enhanced sample prep. (ppm) (manufacturer Raybow - DS05): 0.1 ppm
CN(C)C(=O)c1cc2cnc(Nc3ccc(N4CCNCC4)cn3)nc2n1C1CCCC1.O=C(O)CCC(=O)O [RIBOCICLIB SUCCINATE 833268A193] | – | – | 0.1 ppm | Nitrite NAT enhanced sample prep. (ppm) (manufacturer Raybow - DS05): 0.1 ppm
CN(C)C(=O)c1cc2cnc(Nc3ccc(N4CCNCC4)cn3)nc2n1C1CCCC1.O=C(O)CCC(=O)O [Batch B692472] | 0.2 ppm | 0.1 ppm | – | Nitrite content T0 (enhanced method): 0.1
CN(C)C(=O)c1cc2cnc(Nc3ccc(N4CCNCC4)cn3)nc2n1C1CCCC1.O=C(O)CCC(=O)O [Batch B698294] | 0.2 ppm | 0.2 ppm | – | –
CN(C)C(=O)c1cc2cnc(Nc3ccc(N4CCNCC4)cn3)nc2n1C1CCCC1.O=C(O)CCC(=O)O [Batch B711868] | – | <0.1 ppm | – | –
CN(C)C(=O)c1cc2cnc(Nc3ccc(N4CCNCC4)cn3)nc2n1C1CCCC1.O=C(O)CCC(=O)O [Batch B708688] | 0.2 ppm | <0.1 ppm | – | –

Further lines, with some results ahead:

Nitrite NAP method (ppm) | Nitrite NAT enhanced sample prep. (ppm) | Nitrite NAT enhanced sample prep. (ppm) (manufacturer Raybow - DS04) | SMILES | other results
– | – | <0.1 ppm | CN(C)C(=O)c1cc2cnc(Nc3ccc(N4CCNCC4)cn3)nc2n1C1CCCC1.O=C(O)CCC(=O)O [RIBOCICLIB SUCCINATE 833268R013] | –
0.1 ppm | <0.1 ppm | – | CN(C)C(=O)c1cc2cnc(Nc3ccc(N4CCNCC4)cn3)nc2n1C1CCCC1.O=C(O)CCC(=O)O [Batch B699003] | –
0.2 ppm | <0.1 ppm | – | CN(C)C(=O)c1cc2cnc(Nc3ccc(N4CCNCC4)cn3)nc2n1C1CCCC1.O=C(O)CCC(=O)O [Batch B698298] | –
0.2 ppm | 0.1 ppm | – | CN(C)C(=O)c1cc2cnc(Nc3ccc(N4CCNCC4)cn3)nc2n1C1CCCC1.O=C(O)CCC(=O)O [Batch B709050] | –
0.2 ppm | 0.1 ppm | – | CN(C)C(=O)c1cc2cnc(Nc3ccc(N4CCNCC4)cn3)nc2n1C1CCCC1.O=C(O)CCC(=O)O [Batch B695106] | Nitrite content T0 (enhanced method): 0.1
– | – | <0.1 ppm | CN(C)C(=O)c1cc2cnc(Nc3ccc(N4CCNCC4)cn3)nc2n1C1CCCC1.O=C(O)CCC(=O)O [RIBOCICLIB SUCCINATE 833268R014] | –
– | – | <0.1 ppm | CN(C)C(=O)c1cc2cnc(Nc3ccc(N4CCNCC4)cn3)nc2n1C1CCCC1.O=C(O)CCC(=O)O [RIBOCICLIB SUCCINATE 833268R012] | –
– | – | 0.1 ppm | CN(C)C(=O)c1cc2cnc(Nc3ccc(N4CCNCC4)cn3)nc2n1C1CCCC1.O=C(O)CCC(=O)O [RIBOCICLIB SUCCINATE 833268A201] | Nitrite NAT enhanced sample prep. (ppm) (manufacturer Raybow - DS05): 0.1 ppm
0.2 ppm | <0.1 ppm | – | CN(C)C(=O)c1cc2cnc(Nc3ccc(N4CCNCC4)cn3)nc2n1C1CCCC1.O=C(O)CCC(=O)O [Batch B709938] | –
0.2 ppm | <0.1 ppm | – | CN(C)C(=O)c1cc2cnc(Nc3ccc(N4CCNCC4)cn3)nc2n1C1CCCC1.O=C(O)CCC(=O)O [Batch B708687] | –
– | – | 0.3 ppm | CN(C)C(=O)c1cc2cnc(Nc3ccc(N4CCNCC4)cn3)nc2n1C1CCCC1.O=C(O)CCC(=O)O [RIBOCICLIB SUCCINATE 833268R008] | –
– | – | <0.1 ppm | CN(C)C(=O)c1cc2cnc(Nc3ccc(N4CCNCC4)cn3)nc2n1C1CCCC1.O=C(O)CCC(=O)O [RIBOCICLIB SUCCINATE 833268R010] | –
0.3 ppm | 0.4 ppm | – | CN(C)C(=O)c1cc2cnc(Nc3ccc(N4CCNCC4)cn3)nc2n1C1CCCC1.O=C(O)CCC(=O)O [Batch B698293] | –
– | – | <0.1 ppm | CN(C)C(=O)c1cc2cnc(Nc3ccc(N4CCNCC4)cn3)nc2n1C1CCCC1.O=C(O)CCC(=O)O [RIBOCICLIB SUCCINATE 833268A144] | Nitrite NAT enhanced sample prep. (ppm) (manufacturer Raybow - DS05): <0.1 ppm
– | – | <0.1 ppm | CN(C)C(=O)c1cc2cnc(Nc3ccc(N4CCNCC4)cn3)nc2n1C1CCCC1.O=C(O)CCC(=O)O [RIBOCICLIB SUCCINATE 833268R016] | –
– | – | 0.1 ppm | CN(C)C(=O)c1cc2cnc(Nc3ccc(N4CCNCC4)cn3)nc2n1C1CCCC1.O=C(O)CCC(=O)O [RIBOCICLIB SUCCINATE 833268A207] | Nitrite NAT enhanced sample prep. (ppm) (manufacturer Raybow - DS05): 0.1 ppm
